Measured values reported in patent US10251909B2 (Board of Regents, the University of Texas System, priority 2007, dated 2019).
Read-outs that look alike come from different tables or passages of the source.

Tests used:
[1] = thirty subjects with hypomagnesemia on thiazide alone; cited from earlier work
[2] = both groups, before potassium supplementation; cited from earlier work
[3] = cited from earlier work
[4] = cited from earlier work; remark: listed apart in the source
[5] = in vivo; cited from earlier work
[6] = Blood pressure during 5 months of KMgCitrate or potassium chloride with hydrochlorothiazide, 21 normal subjects (Example 1); type: in vivo, Human; settings: for fall in diastolic blood pressure (supine) / fall in systolic blood pressure (supine): 42 mEq K per day with hydrochlorothiazide 50 mg/day, monthly for 5 months versus baseline, normal subjects; for effect on blood pressure: normal subjects given hydrochlorothiazide concurrently for 5 months, as early as one month and as long as 5 months
Description: FIG. 2 graphically illustrates the effect of KMgCitrate (K4MgCit2) on blood pressure in 21 normal subjects. Changes in systolic and diastolic blood pressures from baseline (before treatment) occurring during 5 months of treatment with potassium chloride (KCl) or KMgCitrate with hydrochlorothiazide are shown individually. * p<0.05 from time zero, ** p<0.01.
In the recently published study by Odvina et al. (Am J Therap 13: 101-108, 2006) that examined the value of KMgCitrate in the prevention of thiazide-induced hypomagnesemia, the unpublished data on blood pressure were extracted. Twenty-one normal subjects participated in the trial. All were started on hydrochorothiazide 50 mg/day. Ten subjects took simultaneously KMgCitrate at a dose of 42 mEq K and […] per day, while 11 subjects received potassium chloride (42 mEq/day). Supine blood pressures were taken before and each month for 5 months. FIG. 3 compares the systolic and diastolic blood pressures between the two groups.

[7] = cited from earlier work; remark: listed apart in the source
[8] = Odvina, 42 mEq K qd; cited from earlier work
[9] = cited from earlier work; remark: listed apart in the source
[10] = Tolerability of KMgCitrate; type: in vivo; settings: usual dosage about 40 mEq potassium, 20 mEq magnesium, 60 mEq citrate
[11] = Insulin responsiveness by hyperinsulinemic euglycemic pump procedure, two subjects with uric acid stones (Example 2); type: in vivo, Human; settings: 49 mEq K, 24.5 mEq Mg per day for 4 weeks
Description: In two subjects with uric acid stones, insulin responsiveness was determined before and after KMgCitrate treatment (49 mEq K, 24.5 mEq Mg per day for 4 weeks) by a hyperinsulinemic euglycemic pump procedure. During intravenous infusion of insulin, glucose was infused at a rate sufficient to maintain a constant glucose concentration. Insulin responsiveness was determined from the glucose disposal rate.

[12] = during therapy versus control phase, constant metabolic diet
[13] = during therapy, constant metabolic diet
[14] = 49 mEq K, 24.5 mEq Mg/day for 3 weeks while continuing hydrochlorothiazide 50 mg/day

SMILES: NS(=O)(=O)c1cc2c(cc1Cl)NCNS2(=O)=O [thiazide, hydrochlorothiazide]
- serum magnesium concentration during thiazide alone versus before treatment [1]: significantly lower
- serum potassium concentration on thiazide alone [2]: decreased significantly
- serum potassium concentration on thiazide alone ([3]; hydrochlorothiazide 50 mg/day for 3 weeks, normal subjects): decreased significantly to below the normal range in most subjects

SMILES: O=C([O-])CC(O)(CC(=O)[O-])C(=O)[O-].[K+].[K+].[K+] [Potassium citrate, potassium citrate, reference compound]
- urinary citrate [4, 12]: did not raise pH or citrate as much
- urinary pH [4, 12]: did not raise pH or citrate as much
- urinary magnesium excretion [4, 13]: did not augment

SMILES: [Cl-].[K+] [potassium chloride, reference compound]
- urinary calcium [5]: has no effect
- fall in diastolic blood pressure (supine) [6]: trend for systolic and diastolic blood pressures to decrease
- fall in systolic blood pressure (supine) [6]: trend for systolic and diastolic blood pressures to decrease
- effect on blood pressure [6]: no statistically significant effect

SMILES: O=C([O-])CC(O)(CC(=O)[O-])C(=O)[O-].O=C([O-])CC(O)(CC(=O)[O-])C(=O)[O-].[K+].[K+].[K+].[K+].[Mg+2] [KMgCitrate, tetrapotassium monomagnesium dicitrate]
- fall in diastolic blood pressure (supine) [6]: significant only in the KMgCitrate group
- fall in systolic blood pressure (supine) [6]: significant only in the KMgCitrate group
- effect on blood pressure [6]: significant reduction
- relative risk of treatment failure compared with placebo ([7]; 42 mEq K, 21 mEq Mg/day for up to 3 years): 0.16 (95% confidence interval of 0.05-0.46)
- patients in whom new calculi formed ([7]; 42 mEq K, 21 mEq Mg/day for up to 3 years, placebo 63.6%): 12.6%
- stone formation rate ([7]; randomized trial, patients with calcium oxalate nephrolithiasis): dramatically reduced
- Increment in Urinary Magnesium [8]: 57 to 63 mg/day
- Increment in Urinary Potassium [8]: 30–50 mEq/day
- peak excretion rate of urinary potassium ([9]; single oral load (KMgCitrate 49 mEq potassium, 24.5 mEq magnesium, 73.5 mEq citrate), timed urine 24 hours, 15 normal volunteers): comparable to that of potassium citrate and potassium chloride
- peak excretion rate and peak time of urinary magnesium ([9]; single oral load, 24.5-25 mEq magnesium, 15 normal volunteers): comparable between KMgCitrate and magnesium citrate
- cumulative increment in urinary magnesium ([9]; single oral load, 24.5-25 mEq magnesium, potassium citrate as control): equivalent between KMgCitrate and magnesium citrate
- peak time (time to reach peak excretion rate) of urinary potassium ([9]; single oral load, 49-50 mEq potassium, 15 normal volunteers): about 4 hours
- tolerability / side effect profile [10]: well tolerated, with a low side effect profile
- serum potassium concentration [3, 14]: increased significantly
- serum potassium determinations reaching normal limits [3, 14]: 81.7%
- Increment in Urinary Magnesium ([3]; Ruml, 49 mEq K qd): 38 mg/day
- Increment in Urinary Potassium ([3]; Ruml, 49 mEq K qd): 33 mEq/day
- glucose disposal rate after treatment, second patient ([11]; 2.2 mg/m^2/min before treatment): 2.8 mg/m^2/min
- glucose disposal rate after treatment, first patient ([11]; 3.2 mg/m^2/min before treatment): 4.3 mg/m^2/min
- insulin responsiveness ([11]; hyperinsulinemic euglycemic pump): improved insulin responsiveness
- Increment in Urinary Magnesium ([4]; Pak, 49 mEq K qd): 44 mg/day
- Increment in Urinary Potassium ([4]; Pak, 49 mEq K qd): 51 mEq/day
- alkali load ([4]; at the same dose of potassium, versus potassium citrate): greater alkali load than potassium citrate
- urinary pH [4, 12]: rose from the control phase
- urinary potassium [4, 12]: rose from the control phase
- inhibitor activity of brushite [4, 13]: increased
- inhibitor activity of calcium oxalate [4, 13]: increased
- urinary saturation of calcium oxalate (activity product) [4, 13]: reduced
- urinary saturation of uric acid (content of undissociated uric acid) [4, 13]: reduced
